# Results as given in ChEMBL document CHEMBL1154456, “CoMFA analysis of dual/multiple PPAR activators” (Eur J Med Chem, 2008).
# Biological target: T1, Peroxisome proliferator-activated receptor gamma (Homo sapiens, UniProt P37231)
# T1 sequence (P37231 whole entry): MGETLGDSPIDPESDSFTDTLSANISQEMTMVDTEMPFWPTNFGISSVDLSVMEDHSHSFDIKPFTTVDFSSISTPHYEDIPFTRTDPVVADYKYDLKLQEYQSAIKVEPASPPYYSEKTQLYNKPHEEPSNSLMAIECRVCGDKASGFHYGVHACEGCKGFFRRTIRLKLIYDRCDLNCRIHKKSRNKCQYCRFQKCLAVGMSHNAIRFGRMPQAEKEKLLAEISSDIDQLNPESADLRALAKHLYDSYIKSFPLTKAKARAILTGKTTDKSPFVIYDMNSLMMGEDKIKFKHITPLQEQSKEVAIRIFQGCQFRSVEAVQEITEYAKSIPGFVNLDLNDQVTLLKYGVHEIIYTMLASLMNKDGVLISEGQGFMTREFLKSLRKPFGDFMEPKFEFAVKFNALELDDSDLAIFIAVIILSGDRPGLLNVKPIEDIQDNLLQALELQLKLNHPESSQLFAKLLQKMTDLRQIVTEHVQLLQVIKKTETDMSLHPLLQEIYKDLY
# Experiment: Agonist activity at human PPARgamma expressed in african green monkey CV1 cells co-transfected with Gal4 assessed as reporter activity by transient transactivation assay
# Assay type: functional, cell-based, CV-1
# Settings: not given
row,EC50,SMILES
1,160 nM,CC(C)OC(Cc1ccc(OCCc2noc(-c3ccccc3C(F)(F)F)n2)cc1)C(=O)O (stereo unspecified)

# Biological target: T2, Peroxisome proliferator-activated receptor delta (Homo sapiens) (UniProt Q03181)
# T2 sequence (whole entry): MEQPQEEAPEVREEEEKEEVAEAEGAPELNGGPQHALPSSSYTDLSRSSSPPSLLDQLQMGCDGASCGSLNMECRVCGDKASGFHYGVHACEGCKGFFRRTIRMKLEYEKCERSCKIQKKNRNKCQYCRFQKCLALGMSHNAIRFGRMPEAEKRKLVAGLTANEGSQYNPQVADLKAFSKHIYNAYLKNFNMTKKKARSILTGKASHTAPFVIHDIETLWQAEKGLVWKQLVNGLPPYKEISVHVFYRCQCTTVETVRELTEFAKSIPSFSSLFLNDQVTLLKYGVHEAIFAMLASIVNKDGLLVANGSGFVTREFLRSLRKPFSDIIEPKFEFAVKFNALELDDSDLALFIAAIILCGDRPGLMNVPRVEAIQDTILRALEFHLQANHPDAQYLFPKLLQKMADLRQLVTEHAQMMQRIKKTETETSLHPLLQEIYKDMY
# Experiment: Agonist activity at human PPARdelta expressed in african green monkey CV1 cells co-transfected with Gal4 assessed as reporter activity by transient transactivation assay
# Assay type: functional, cell-based
# Parameters: concentration or dose not given beside the values
# Settings: CV-1
row,Activity,SMILES
1,< 40%,CC(C)OC(Cc1ccc(OCCc2noc(-c3cc(C(F)(F)F)cc(C(F)(F)F)c3)n2)cc1)C(=O)O (stereo unspecified)
2,< 40%,CC(C)OC(Cc1ccc(OCc2noc(C3CCCCC3)n2)cc1)C(=O)O (stereo unspecified)
3,< 40%,CC(C)OC(Cc1ccc(OCCc2noc(-c3ccccc3)n2)cc1)C(=O)O (stereo unspecified)
4,< 40%,CC(C)OC(Cc1ccc(OCCc2noc(-c3ccc(F)cc3)n2)cc1)C(=O)O (stereo unspecified)
5,40%,CC(C)OC(Cc1ccc(OCCc2noc(-c3ccc(Cl)cc3)n2)cc1)C(=O)O (stereo unspecified)
